From patent US8563717B2, “Adenine derivatives” (GlaxoSmithKline LLC, priority 2008, dated 2013)
Counter-ions that a name gives are not always drawn.

Tested on: Interferon-α
Test: Induction of Interferon-α using cryopreserved human PBMCs
Format: cell-based
Conditions: PBMC, 24 h incubation, normalised to 1 uM resiquimod, read-out: mean pEC50 for induction of IFN-α (converted)
Procedure, shortened: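 Cryopreserved healthy-donor PBMCs at 1×10^6 cells/ml in RPMI/10% FCS with 1000 units/ml IFN-gamma, exposed 24 h at 37 °C to 11-point two-fold compound dilutions. Supernatant IFN-α quantified by MSD electrochemiluminescence immunoassay; pEC50 from 4-parameter fit, normalised to 1 uM resiquimod and DMSO.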

SMILES	EC50 [nM]
CCCCOc1nc(N)c2[nH]c(=O)n(CCCC3CCCN(C(C)C)C3)c2n1 (stereo not drawn) [Example 46, 6-Amino-2-(butyloxy)-9-{3-[1-(1-methylethyl)-3-piperidinyl]propyl}-7,9-dihydro-8H-purin-8-one]	< 1580
CCCCNc1nc(N)c2[nH]c(=O)n(CC3CCCN(CC)C3)c2n1 (stereo not drawn) [Example 2, 6-Amino-2-(butylamino)-9-[(1-ethyl-3-piperidinyl)methyl]-7,9-dihydro-8H-purin-8-one]	< 1580
CCCCOc1nc(N)c2[nH]c(=O)n(CCCC3CCCCN3C3CCCC3)c2n1 (stereo not drawn) [Example 20, 6-Amino-2-(butyloxy)-9-[3-(1-cyclopentyl-2-piperidinyl)propyl]-7,9-dihydro-8H-purin-8-one]	< 1580
CCCCOc1nc(N)c2[nH]c(=O)n(CCCC3CCNCC3)c2n1 [Example 93, 6-Amino-2-(butyloxy)-9-[3-(4-piperidinyl)propyl]-7,9-dihydro-8H-purin-8-one]	< 1580
CCCCOc1nc(N)c2[nH]c(=O)n(CCC3CCN(CCCC)CC3)c2n1 [Example 82, 6-Amino-2-(butyloxy)-9-[2-(1-butyl-4-piperidinyl)ethyl]-7,9-dihydro-8H-purin-8-one]	< 1580
CCCCOc1nc(N)c2[nH]c(=O)n(CCCCC3CCCN(CCC(C)C)C3)c2n1 (stereo not drawn) [Example 61, 6-Amino-2-(butyloxy)-9-{4-[1-(3-methylbutyl)-3-piperidinyl]butyl}-7,9-dihydro-8H-purin-8-one]	< 1580
CCCCOc1nc(N)c2[nH]c(=O)n(CCCCC3CCN(CCC(C)C)CC3)c2n1 [Example 113, 6-Amino-2-(butyloxy)-9-{4-[1-(3-methylbutyl)-4-piperidinyl]butyl}-7,9-dihydro-8H-purin-8-one]	< 1580
CCCCOc1nc(N)c2[nH]c(=O)n(CCCC3CCCCN3CCC)c2n1 (stereo not drawn) [Example 15, 6-Amino-2-(butyloxy)-9-[3-(1-propyl-2-piperidinyl)propyl]-7,9-dihydro-8H-purin-8-one]	< 1580
CCCCOc1nc(N)c2[nH]c(=O)n(CCCC3CCCN(CC(C)C)C3)c2n1 (stereo not drawn) [Example 48, 6-Amino-2-(butyloxy)-9-{3-[1-(2-methylpropyl)-3-piperidinyl]propyl}-7,9-dihydro-8H-purin-8-one hydrochloride]	< 1580
CCCCOc1nc(N)c2[nH]c(=O)n(CCC3CCCN(CCCC)C3)c2n1 (stereo not drawn) [Example 33, 6-Amino-2-(butyloxy)-9-[2-(1-butyl-3-piperidinyl)ethyl]-7,9-dihydro-8H-purin-8-one]	< 1580
CCCCOc1nc(N)c2[nH]c(=O)n(CCC3CCCN(CC(C)C)C3)c2n1 (stereo not drawn) [Example 34, 6-Amino-2-(butyloxy)-9-{2-[1-(2-methylpropyl)-3-piperidinyl]ethyl}-7,9-dihydro-8H-purin-8-one]	< 1580
CCCCOc1nc(N)c2[nH]c(=O)n(CCCCC3CCN(CC(C)C)CC3)c2n1 [Example 111, 6-Amino-2-(butyloxy)-9-{4-[1-(2-methylpropyl)-4-piperidinyl]butyl}-7,9-dihydro-8H-purin-8-one]	< 1580
CCCCOc1nc(N)c2[nH]c(=O)n(CCCC3CCN(CCC(C)C)CC3)c2n1 [Example 99, 6-Amino-2-(butyloxy)-9-{3-[1-(3-methylbutyl)-4-piperidinyl]propyl}-7,9-dihydro-8H-purin-8-one]	< 1580
CCC[C@H](C)Oc1nc(N)c2[nH]c(=O)n(CCC3CCNCC3)c2n1 [Example 90, 6-Amino-2-{[(1S)-1-methylbutyl]oxy}-9-[2-(4-piperidinyl)ethyl]-7,9-dihydro-8H-purin-8-one]	< 1580
CCCCOc1nc(N)c2[nH]c(=O)n(CCCCC3CCCNC3)c2n1 (stereo not drawn) [Example 55, 6-amino-2-(butyloxy)-9-[4-(3-piperidinyl)butyl]-7,9-dihydro-8H-purin-8-one]	< 1580
CCC[C@H](C)Oc1nc(N)c2[nH]c(=O)n(CCCC3CCCNC3)c2n1 (stereo partly drawn) [Example 53, 6-Amino-2-{[(1S)-1-methylbutyl]oxy}-9-[3-(3-piperidinyl)propyl]-7,9-dihydro-8H-purin-8-one]	< 1580
CCCCOc1nc(N)c2[nH]c(=O)n(CCCCCC3CCN(CCC(C)C)CC3)c2n1 [Example 128, 6-amino-2-(butyloxy)-9-{5-[1-(3-methylbutyl)-4-piperidinyl]pentyl}-7,9-dihydro-8H-purin-8-one]	< 1580
CCCCOc1nc(N)c2[nH]c(=O)n(CCCC3CCCN(CCC(C)C)C3)c2n1 (stereo not drawn) [Example 49, 6-Amino-2-(butyloxy)-9-{3-[1-(3-methylbutyl)-3-piperidinyl]propyl}-7,9-dihydro-8H-purin-8-one]	< 1580
CCC[C@H](C)Oc1nc(N)c2[nH]c(=O)n(CC3CCN(CC)CC3)c2n1 [Example 78, 6-Amino-9-[(1-ethyl-4-piperidinyl)methyl]-2-{[(1S)-1-methylbutyl]oxy}-7,9-dihydro-8H-purin-8-one]	< 1580
CCCCOc1nc(N)c2[nH]c(=O)n(CCC3CCNCC3)c2n1 [Example 6, hydrochloride]	< 1580

SMILES	EC50 [nM]
CCCCOc1nc(N)c2[nH]c(=O)n(CCCC3CCN(CC(C)C)CC3)c2n1 [Example 97, 6-Amino-2-(butyloxy)-9-{3-[1-(2-methylpropyl)-4-piperidinyl]propyl}-7,9-dihydro-8H-purin-8-one]	< 1580
CCCCOc1nc(N)c2[nH]c(=O)n(CCCCC3CCCN(CCC4CCCCC4)C3)c2n1 (stereo not drawn) [Example 64, 6-Amino-2-(butyloxy)-9-{4-[1-(2-cyclohexylethyl)-3-piperidinyl]butyl}-7,9-dihydro-8H-burin-8-one]	< 1580
CCCCOc1nc(N)c2[nH]c(=O)n(CCCC3CCCCN3CCC(C)C)c2n1 (stereo not drawn) [Example 19, 6-Amino-2-(butyloxy)-9-{3-[1-(3-methylbutyl)-2-piperidinyl]propyl}-7,9-dihydro-8H-purin-8-one]	< 1580
CCCCOc1nc(N)c2[nH]c(=O)n(CCCCC3CCCN(CC)C3)c2n1 (stereo not drawn) [Example 56, 6-Amino-2-(butyloxy)-9-[4-(1-ethyl-3-piperidinyl)butyl]-7,9-dihydro-8H-purin-8-one]	< 1580
CCCCOc1nc(N)c2[nH]c(=O)n(CCCCC3CCCN(C(C)C)C3)c2n1 (stereo not drawn) [Example 58, 6-Amino-2-(butyloxy)-9-{4-[1-(1-methylethyl)-3-piperidinyl]butyl}-7,9-dihydro-8H-purin-8-one]	< 1580
CCCCOc1nc(N)c2[nH]c(=O)n(CCCCC3CCN(C4CCCC4)CC3)c2n1 [Example 114, 6-Amino-2-(butyloxy)-9-[4-(1-cyclopentyl-4-piperidinyl)butyl]-7,9-dihydro-8H-purin-8-one]	< 1580
CCCCOc1nc(N)c2[nH]c(=O)n(CC3CCCN(CC(C)C)C3)c2n1 (stereo not drawn) [Example 26, 6-Amino-2-(butyloxy)-9-{[1-(2-methylpropyl)-3-piperidinyl]methyl}-7,9-dihydro-8H-purin-8-one]	< 1580
CCCCOc1nc(N)c2[nH]c(=O)n(CCCCC3CCN(C4CCCCC4)CC3)c2n1 [Example 116, 6-Amino-2-(butyloxy)-9-[4-(1-cyclohexyl-4-piperidinyl)butyl]-7,9-dihydro-8H-purin-8-one]	< 1580
CCCCOc1nc(N)c2[nH]c(=O)n(CCC3CCCN(CCC4CCCCC4)C3)c2n1 (stereo not drawn) [Example 39, 6-Amino-2-(butyloxy)-9-{2-[1-(2-cyclohexylethyl)-3-piperidinyl]ethyl}-7,9-dihydro-8H-purin-8-one]	< 1580
CCCCOc1nc(N)c2[nH]c(=O)n(CCC3CCCN(CCC)C3)c2n1 (stereo not drawn) [Example 31, 6-Amino-2-(butyloxy)-9-[2-(1-propyl-3-piperidinyl)ethyl]-7,9-dihydro-8H-purin-8-one]	< 1580
CCCCOc1nc(N)c2[nH]c(=O)n(CCCC3CCCN(CC4CCCC4)C3)c2n1 (stereo not drawn) [Example 51, 6-Amino-2-(butyloxy)-9-{3-[1-(cyclopentylmethyl)-3-piperidinyl]propyl}-7,9-dihydro-8H-purin-8-one hydrochloride]	< 1580
CCCCOc1nc(N)c2[nH]c(=O)n(CCCCCC3CCCNC3)c2n1 (stereo not drawn) [Example 67, 6-Amino-2-(butyloxy)-9-[5-(3-piperidinyl)pentyl]-7,9-dihydro-8H-purin-8-one]	< 1580
CCCCOc1nc(N)c2[nH]c(=O)n(CCCCCCC3CCN(CC)CC3)c2n1 [Example 133, 6-Amino-2-(butyloxy)-9-[6-(1-ethyl-4-piperidinyl)hexyl]-7,9-dihydro-8H-purin-8-one]	< 1580
CCCCOc1nc(N)c2[nH]c(=O)n(CCCCCC3CCN(CC4CCCC4)CC3)c2n1 [Example 130, 6-Amino-2-(butyloxy)-9-{5-[1-(cyclopentylmethyl)-4-piperidinyl]pentyl}-7,9-dihydro-8H-purin-8-one hydrochloride]	< 1580
CCCCOc1nc(N)c2[nH]c(=O)n(CCCCC3CCCN(C4CCCC4)C3)c2n1 (stereo not drawn) [Example 62, 6-Amino-2-(butyloxy)-9-[4-(1-cyclopentyl-3-piperidinyl)butyl]-7,9-dihydro-8H-purin-8-one]	< 1580
CCCCOc1nc(N)c2[nH]c(=O)n(CCCCC3CCCN(CCC)C3)c2n1 (stereo not drawn) [Example 57, 6-Amino-2-(butyloxy)-9-[4-(1-propyl-3-piperidinyl)butyl]-7,9-dihydro-8H-purin-8-one]	< 1580
CCCCOc1nc(N)c2[nH]c(=O)n(CCCCCC3CCN(C4CCCC4)CC3)c2n1 [Example 129, 6-Amino-2-(butyloxy)-9-[5-(1-cyclopentyl-4-piperidinyl)pentyl]-7,9-dihydro-8H-purin-8-one]	< 1580
CCCCOc1nc(N)c2[nH]c(=O)n(CC3CCN(CC(C)C)CC3)c2n1 [Example 73, 6-Amino-2-(butyloxy)-9-{[1-(2-methylpropyl)-4-piperidinyl]methyl}-7,9-dihydro-8H-purin-8-one]	< 1580
CCC[C@H](C)Oc1nc(N)c2[nH]c(=O)n(CCCCC3CCCNC3)c2n1 (stereo partly drawn) [Example 65, 6-Amino-2-{[(1S)-1-methylbutyl]oxy}-9-[4-(3-piperidinyl)butyl]-7,9-dihydro-8H-purin-8-one]	< 1580
